Data set [1] concerns Pregnant C57BL/6 mice. As to the kind of experiment: mouse model of moderate preterm birth (2 mg/kg LPS). It is filed as in vivo. The conditions noted are these: for gestation in vivo: 2 mg/kg LPS on D15, compounds intraperitoneal every 8 hours beginning 8 hours after LPS. The protocol:
Provided in FIGS. 6A and 6B are an experimental schematic and results of compound treatment in mouse models of moderate preterm birth. Pregnant C57BL/6 mice were intraperitoneally administered 2 mg/kg LPS (Escherichia coli 0127:B8, chromatographically pure, Sigma-Aldrich) or PBS (as control) on D15. Mice were then treated with either intraperitoneal injections of vehicle (100 μl, 30% DMSO in pharmaceutical sesame oil), DHEA-S(first two doses at 0.8 mg/mouse, later doses at 0.4 mg/mouse, 100 μl), THDOC (first two doses at 0.8 mg/mouse, later doses at 0.4 mg/mouse, 100 μl), estriol-16-glucuronide (first two doses at 0.8 mg/mouse, later doses at 0.4 mg/mouse, 100 μl), androstane-3,17-diol (1.5 mg/mouse, 100 μl), Androstane-3,17-diol+progesterone (each at 0.75 mg/mouse, 100 μl), or DHEA-S+androstane-3,17-diol+progesterone (androstane-3,17-diol and progesterone each at 0.75 mg/mouse, DHEA-S at 0.27 mg/mouse for the first two doses and then 0.13 mg/mouse for the later does, 100 μl). Compound groups received the compounds via intraperitoneal injections every 8 hours, beginning 8 hours after LPS administration, up to 4 doses, and then after 12 hours before delivery.

Data set [2] deals with uterine muscle strips from pregnant WT mice. As to the kind of experiment: myography of uterine muscle strips, oxytocin dose-response. The arrangement: species or system mouse. Conditions: D18 strips. The protocol:
(§1) Uterine muscle strips were extracted from pregnant mice and were assessed for contractibility via myography. Timed-pregnant wild-type C57/B6 mice were euthanized before making a vertical midline abdominal incision and removing each of the two uterine horns. Uterine horns were subsequently cut into 3-mm×7-mm segments and placed in a modified Krebs buffer (118 mM NaCl, […], 1.2 mM MgSO4, 1.2 mM KH2PO4, 2.5 mM CaCl2), 25 mM NaHCO3, and 11 mM glucose, pH 7.4). Muscle segments were vertically suspended on custom-made stainless steel hooks inside an organ bath filled with modified Krebs buffer, maintained at 37° C., and aerated with gas containing 95% O2 and 5% CO2. The strips were allowed to equilibrate at 1.5 g of tension for 45 min.
For the oxytocin dose-response experiments, the strips were then stimulated with oxytocin at concentrations ranging from 1 to 1000 nM, and the pattern of contraction in response to each dose was recorded for 9 min. The muscle strips were washed with Krebs solution twice and allowed to equilibrate for 3 min before the next stimulation. In separate experiments, strips were treated with the compounds before assessing the dose response to oxytocin. Contraction tracings were recorded using PowerLab and LabChart (ADInstruments).
Provided in FIGS. 5B and 5C are results of a myography experiment measuring spontaneous contractions induced by oxytocin. Myography of uterine muscle strips from pregnant WT mice at D18 was performed while incubating the strips with increasing doses of oxytocin in the presence of 1 μM Androstane-3,17-diol (black squares) or vehicle (black circles), n=4 to 7. The results are provided as old increase in area under the curve AUC (FIG. 5B), and amplitude (FIG. 5C) from baseline spontaneous contractions with vehicle and Androstane-3,17-diol. […]

Data set [3] concerns human uterine smooth muscle cells. As to the kind of experiment: collagen gel contraction assay. It is filed as cell-based.
In data set [4] the test system is uterine muscle strips from pregnant WT mice. The experiment in a line: myography of uterine muscle strips, spontaneous contraction. The arrangement: species or system mouse. The method, then: as §1
Provided in FIG. 5A are results of a myography experiment measuring spontaneous contraction. Myography of uterine muscle strips from pregnant WT mice at D18 was performed while incubating the strips with oxytocin (OXY), Vehicle, 0.25 μM μM of DHEA-S, 1 μM of THDOC, 1 μM of estriol-16-glucuronide, or 1 μM of androstane-3,17-diol. The area under the curve was calculated for the final 180 s of each 9-min contraction tracing using GraphPad Prism (GraphPad Prism for Macintosh version 5.0; GraphPad Software). The area under the curve for each response was then normalized to the area under the curve of the baseline.
Provided in FIG. 5E are myography tracings recorded with various compound applications: 10 μM progesterone, 1 μM Androstane-3,17-diol, 0.5 μM Androstane-3,17-diol+5 μM progesterone, and 0.33 μM Androstane-3,17-diol+0.33 μM THDOC+3.3 μM progesterone. Left of the arrow is baseline contraction and to the right of the arrow indicates when the compounds were applied. […] Note that there was no obvious effect when treating the muscle with 1 μM progesterone (data not shown).

The subject of data set [5] is Pregnant C57BL/6 mice. The experiment in a line: treatment of healthy control mice (no LPS administration). It is filed as in vivo. Conditions: 1.5 mg/mouse intraperitoneal every 24 hours. The method, then: (§2) Provided in FIGS. 8A and 8B are an experimental schematic and results of tocolytic compound treatment in mouse models of severe preterm birth. In separate experiments, pregnant C57BL/6 mice were intraperitoneally administered 3 mg/kg LPS (Escherichia coli 0127:B8, chromatographically pure, Sigma-Aldrich) or PBS (as control) on D15. Treated mice were then treated with either intraperitoneal injections of vehicle or androstane-3,17-diol (1.5 mg/mouse). The androstane-3,17-diol group received […] via intraperitoneal injections every 24 hours, up to 3 days before delivery. One-third (33%) of LPS-induced preterm mice treated with androstane-3,17-diol reached full term.

Data set [6] has as its system Pregnant C57BL/6 mice. The experiment in a line: mouse model of severe preterm birth (3 mg/kg LPS). In kind it is in vivo. The conditions noted are these: 3 mg/kg LPS on D15. The method, then: Provided in FIG. 7 is an experimental schematic of compound treatment in mouse models of severe preterm birth. In separate experiments, pregnant C57BL/6 mice were intraperitoneally administered 3 mg/kg LPS (Escherichia coli 0127:B8, chromatographically pure, Sigma-Aldrich) or PBS (as control) on D15. Treated mice were then treated with either intraperitoneal injections of vehicle (200 μl, 15% DMSO in pharmaceutical sesame oil) or androstane-3,17-diol (1.5 mg/mouse, 200 μl) every 12 hours, up to 5 doses before delivery.
as §2

Where [7] appears, read: 2 mg/kg LPS on D15, compounds intraperitoneal.

SMILES strings stand for the structures. “Also recorded” adds a separate entry of the source. Counter-ions that a name gives are not always drawn.

As for `C[C@]12CC[C@@H](O)C[C@H]1CC[C@@H]1[C@@H]2CC[C@]2(C)[C@@H](C(=O)CO)CC[C@@H]12` [THDOC, tetrahydrodeoxycorticosterone], in the data set on Pregnant C57BL/6 mice [1], the gestation in vivo entry is listed as “prolonged gestation in vivo”.

For `C[C@]12CC[C@@H](O)C[C@@H]1CC[C@@H]1[C@@H]2CC[C@]2(C)[C@@H](O)CC[C@@H]12` (stereo in doubt) [androstane-3,17-diol], in data set [2] (increasing doses of oxytocin, 1 μM Androstane-3,17-diol), the “effect on oxytocin-induced uterine contractility (AUC and amplitude from baseline)” value is listed as “reduced; also recorded: inhibits uterine muscle contraction with oxytocin stimulation”. Further, the “ability to mitigate collagen retraction (gel surface area relative to no cell control)” value in data set [3] (oxytocin 100 nM, 18 hours, 2.5 μM DHEA-S, 10 μM THDOC, 10 μM estriol-16-glucuronide, 10 μM androstane-3,17-diol, 2 mM progesterone) is on record as “provided the best results”. In addition, in the data set with Pregnant C57BL/6 mice [1] (setting [7]), the “birth outcome of preterm model females” value is “Full-term live pups were birthed” and the “comparison of gestation results between treatment groups” value is “most significant results”. The gestation in vivo result in the data set on Pregnant C57BL/6 mice [1] was “prolonged gestation in vivo”. Further, the “muscle contractility in myography tracings” value in data set [4] (1 μM Androstane-3,17-diol) was “rapid inhibition of the muscle contraction”. For the same compound, the “suppression of uterine contractility (area under the curve normalized to baseline)” value in data set [4] (D18 strips, 0.25 μM DHEA-S, 1 μM THDOC, 1 μM estriol-16-glucuronide, 1 μM androstane-3,17-diol) is listed as “most significant inhibition effect”. The gestation period result with Pregnant C57BL/6 mice [5] is on record as “increased gestation period beyond the typical date of delivery”. Moreover, the “mice that reached full-term” value with Pregnant C57BL/6 mice [6] (1.5 mg/mouse intraperitoneal every 12 hours, up to 5 doses) is listed as 1/3. The “appearance of mom and pups” value with Pregnant C57BL/6 mice [6] (1.5 mg/mouse intraperitoneal every 12 hours, the mouse that reached full-term) is “both mom and pups looked healthy”. Further, the “LPS-induced preterm mice that reached full term” value in the data set with Pregnant C57BL/6 mice [6] (1.5 mg/mouse intraperitoneal every 24 hours, up to 3 days) stood at 33%.

For `CC[C@H](C)[C@@H]1NC(=O)[C@H](Cc2ccc(O)cc2)NC(=O)[C@@H](N)CSSC[C@@H](C(=O)N2CCC[C@H]2C(=O)N[C@@H](CC(C)C)C(=O)NCC(N)=O)NC(=O)[C@H](CC(N)=O)NC(=O)[C@H](CCC(N)=O)NC1=O` [Oxytocin, oxytocin, reference compound], in data set [2] (oxytocin 1 to 1000 nM, vehicle), the “uterine contractility (AUC, amplitude)” value is “induced a dose-dependent increase in uterine contractility”.

As for `C[C@]12CC[C@H](OS(=O)(=O)O)CC1=CC[C@@H]1[C@@H]2CC[C@]2(C)C(=O)CC[C@@H]12` [DHEA-S, dehydroisoandrosterone sulfate], the “birth outcome of preterm model females” value in the data set with Pregnant C57BL/6 mice [1] (setting [7]) is “Full-term live pups were birthed”. Also, the gestation in vivo entry with Pregnant C57BL/6 mice [1] is given as “prolonged gestation in vivo”.

In the case of `CC(=O)[C@H]1CC[C@H]2[C@@H]3CCC4=CC(=O)CC[C@]4(C)[C@H]3CC[C@]12C` [progesterone, reference compound], the “effect on uterine muscle contraction with oxytocin stimulation” value in data set [2] (increasing doses of oxytocin, 10 μM progesterone, n=3) is “but progesterone inhibits uterine muscle contraction”. In addition, in data set [3] (progesterone at the same concentration as androstane-3,17-diol (10 μM)), the “ability to mitigate collagen retraction” value was “no effect”. Besides, the “muscle contractility in myography tracings” value was “no effects” in data set [4] (1 μM progesterone); “first enhanced and then gradually suppressed in peak height” in data set [4] (10 μM progesterone).

Values taken from patent US20220339176A1, “Methods of Treatments to Prolong Gestation and Complications of Menstruation or Gestation” (priority 2019, published 2022).
